# Results taken from the supplement of paper PMC10331698.
# ± gives the standard deviation of the averaged measurements.
# Columns and labels:
# Assay in all cases: level (log10 ratio to DMSO vehicle control); higher = higher biomarker level / cell amount than vehicle control
# Conditions in all cases: in DMSO
# [1] = compound: OCCC(F)(F)C(F)(F)C(F)(F)C(F)(F)C(F)(F)C(F)(F)F [6:2 Fluorotelomer alcohol]
# Protocol: (§1)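 BioMAP Diversity Plus panel of 12 human primary cell co-culture systems (3C, 4H, LPS, SAg, BT, BF4T, BE3C, CASM3C, HDF3CGF, KF3CT, MyoF, Mphg). Compounds were added 1 h before stimulation and left for 24 h (MyoF 48 h; BT 72 h for soluble read-outs or 6 d for IgG). Biomarkers were read by ELISA, cytotoxicity by SRB, PBMC viability and proliferation by Alamar Blue. Each well value was divided by the mean of 8 DMSO control wells on the same plate and log10 transformed; duplicate blinded samples were tested at 4 concentrations.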
# [2] = compound: C=CC(=O)OCC(F)(F)C(F)(F)C(F)(F)C(F)(F)C(F)(F)C(F)(F)C(F)(F)F [1H,1H-Perfluorooctyl acrylate]
# Protocol: as §1
# Heptafluorobutyramide = compound: NC(=O)C(F)(F)C(F)(F)C(F)(F)F [Heptafluorobutyramide]
# Protocol: as §1
# Pentafluoropropionamide = compound: NC(=O)C(F)(F)C(F)(F)F [Pentafluoropropionamide]
# Protocol: as §1
# [3] = compound: O=C(O)C(F)(F)C(F)(F)C(F)(F)OC(F)(C(F)(F)F)C(F)(F)F [Perfluoro-4-isopropoxybutanoic acid]
# Protocol: as §1
# [4] = compound: COC(=O)CCC(F)(F)C(F)(F)C(F)(F)C(F)(F)F [Methyl 2H,2H,3H,3H-perfluoroheptanoate]
# Protocol: as §1
# [5] = compound: FC(F)(F)C(F)(C(F)(F)F)C(F)(F)C(F)(F)CC1CO1 [3-(Perfluoro-3-methylbutyl)-1,2-propenoxide]
# Protocol: as §1
Test System,level (log10) ([1]; 6700 nM),level (log10) ([1]; 20000 nM),level (log10) ([2]; 6700 nM),level (log10) ([2]; 20000 nM),level (log10) ([2]; 60000 nM),level (log10) (Heptafluorobutyramide; 6700 nM),level (log10) (Heptafluorobutyramide; 20000 nM),level (log10) (Heptafluorobutyramide; 60000 nM),level (log10) (Pentafluoropropionamide; 6700 nM),level (log10) (Pentafluoropropionamide; 20000 nM),level (log10) (Pentafluoropropionamide; 60000 nM),level (log10) ([3]; 6700 nM),level (log10) ([3]; 20000 nM),level (log10) ([3]; 60000 nM),level (log10) ([4]; 6700 nM),level (log10) ([4]; 20000 nM),level (log10) ([4]; 60000 nM),level (log10) ([5]; 6700 nM),level (log10) ([5]; 20000 nM)
HDF3CGF:SRB,-0.0245 ± 0.073,0.008 ± 0.054,-0.003 ± 0.0099,0.0015 ± 0.025,0.0115 ± 0.0092,0.018 ± 0.0014,0.0035 ± 0.025,0.0075 ± 0.03,-0.0105 ± 0.011,0.0265 ± 0.079,0.0445 ± 0.086,-0.0125 ± 0.025,0.0115 ± 0.037,-0.0055 ± 0.015,0.0005 ± 0.005,-0.001 ± 0.057,0.0735 ± 0.091,0.0005 ± 0.057,0.0145 ± 0.06
HDF3CGF:TIMP-1,0.0005 ± 0.018,0.0095 ± 0.028,-0.026 ± 0.05,-0.029 ± 0.0057,-0.015 ± 0.038,0.002 ± 0.017,-0.017 ± 0.051,-0.001 ± 0.0042,-0.0265 ± 0.0092,-0.01 ± 0.018,0.0045 ± 0.032,-0.023 ± 0.048,-0.0155 ± 0.043,0.018 ± 0.11,-0.0015 ± 0.022,0.008 ± 0.014,0.014 ± 0.011,-0.012 ± 0.035,-0.035 ± 0.033
HDF3CGF:TIMP-2,-0.007 ± 0.025,0.004 ± 0.021,0.0145 ± 0.016,-0.023 ± 0.011,-0.041 ± 0.0028,-0.0195 ± 0.025,-0.0065 ± 0.033,-0.009 ± 0.071,-0.0185 ± 0.026,0.008 ± 0.0057,0.033 ± 0.013,-0.008 ± 0.017,0.0335 ± 0.022,-0.004 ± 0.023,0.0295 ± 0.019,-0.0065 ± 0.03,0.0195 ± 0.043,-0.043 ± 0.081,-0.0475 ± 0.1
KF3CT:CCL2/MCP-1,-0.015 ± 0.038,-0.016 ± 0.041,-0.0195 ± 0.022,-0.0195 ± 0.0021,-0.016 ± 0.011,-0.006 ± 0.0014,-0.009 ± 0.013,0.0165 ± 0.057,-0.0205 ± 0.015,-0.0285 ± 0.023,0.0155 ± 0.071,0.0235 ± 0.039,0.032 ± 0.018,0.023 ± 0.052,-0.0185 ± 0.035,-0.0515 ± 0.026,0.013 ± 0.048,-0.004 ± 0.03,0.022 ± 0.04
KF3CT:CD54/ICAM-1,0.011 ± 0.0057,0.0155 ± 0.0021,-0.005 ± 0.016,-0.0075 ± 0.005,-0.0045 ± 0.0092,-0.012 ± 0.014,-0.002 ± 0.0028,0.0015 ± 0.012,-0.009 ± 0.0057,-0.0045 ± 0.016,0.006 ± 0.018,0.001 ± 0.016,-0.035 ± 0.0071,-0.0495 ± 0.016,0.005 ± 0.0028,0.021 ± 0.024,-0.01 ± 0.04,0.0055 ± 0.011,-0.0105 ± 0.0064
KF3CT:CXCL8/IL-8,0 ± 0.0057,-0.0165 ± 0.005,-0.0205 ± 0.021,-0.0005 ± 0.019,0.0405 ± 0.0021,0.003,0.002 ± 0.0085,0.0095 ± 0.012,-0.005 ± 0.0042,-0.0105 ± 0.005,0.0215 ± 0.012,0.0175 ± 0.018,0.0335 ± 0.005,0.043 ± 0.071,-0.0125 ± 0.019,-0.007 ± 0.013,0.0175 ± 0.044,-0.0155 ± 0.0078,0.0035 ± 0.013
KF3CT:CXCL9/MIG,0.0045 ± 0.0035,0.009,0.005 ± 0.0042,-0.0035 ± 0.0035,0.008 ± 0.0099,0.0065 ± 0.0021,0.0005 ± 0.0078,0.0155 ± 0.0064,0.0055 ± 0.013,-0.0015 ± 0.0035,-0.0085 ± 0.012,0.0025 ± 0.011,0.0105 ± 0.00071,0.0155 ± 0.023,-0.003 ± 0.0057,0.004 ± 0.0042,-0.02 ± 0.0028,0.005 ± 0.014,0.001 ± 0.013
KF3CT:CXCL10/IP-10,0.0105 ± 0.0092,0.006 ± 0.014,0.0055 ± 0.0035,0 ± 0.0071,-0.003 ± 0.014,0.002 ± 0.0042,0.0015 ± 0.0078,0.005 ± 0.0099,-0.007 ± 0.0014,0 ± 0.0028,-0.0145 ± 0.0035,0.019 ± 0.034,0.017 ± 0.023,0.0235 ± 0.043,0.005 ± 0.02,-0.003 ± 0.0014,-0.005 ± 0.0014,-0.009 ± 0.016,-0.026 ± 0.014
KF3CT:IL-1alpha,0.003 ± 0.041,-0.0085 ± 0.011,-0.0075 ± 0.022,-0.001 ± 0.0071,-0.007 ± 0.0028,-0.0035 ± 0.0064,0.013 ± 0.0057,-0.0005 ± 0.032,-0.0165 ± 0.005,-0.034 ± 0.0085,-0.0105 ± 0.044,0.0225 ± 0.019,0.0165 ± 0.0035,0.014 ± 0.025,-0.0295 ± 0.019,-0.019 ± 0.018,-0.0095 ± 0.029,-0.0105 ± 0.013,-0.0065 ± 0.015
KF3CT:MMP-9,-0.007 ± 0.035,-0.0045 ± 0.015,-0.0245 ± 0.00071,-0.0225 ± 0.019,-0.014 ± 0.014,0.002,-0.0005 ± 0.00071,0.0035 ± 0.00071,-0.0375 ± 0.012,-0.0255 ± 0.00071,-0.0105 ± 0.012,0.0055 ± 0.0035,0.022 ± 0.02,0.078 ± 0.014,-0.012 ± 0.047,-0.0145 ± 0.035,-0.024 ± 0.017,-0.016 ± 0.03,-0.0265 ± 0.039
KF3CT:PAI-I,-0.0155 ± 0.0035,-0.0035 ± 0.011,-0.0075 ± 0.00071,-0.01 ± 0.013,-0.0135 ± 0.018,-0.0145 ± 0.0035,-0.011 ± 0.0028,0.0105 ± 0.012,-0.006 ± 0.0057,0.002 ± 0.0014,0.0075 ± 0.0021,-0.019 ± 0.0028,-0.0265 ± 0.015,-0.0125 ± 0.018,-0.01 ± 0.013,-0.009 ± 0.0042,-0.0105 ± 0.0092,0 ± 0.035,-0.011 ± 0.037
KF3CT:SRB,-0.0085 ± 0.0078,-0.0225 ± 0.005,-0.007 ± 0.0014,-0.0055 ± 0.00071,-0.002 ± 0.0071,-0.0055 ± 0.0035,0.0025 ± 0.0078,-0.001 ± 0.011,-0.006 ± 0.0014,-0.0025 ± 0.0035,-0.007 ± 0.023,-0.009 ± 0.0071,-0.013 ± 0.0028,-0.007 ± 0.0071,-0.018 ± 0.016,-0.0055 ± 0.005,0 ± 0.018,-0.004 ± 0.0042,-0.0085 ± 0.0064
KF3CT:TIMP-2,0.0005 ± 0.016,0.0015 ± 0.015,-0.0075 ± 0.00071,-0.0155 ± 0.018,-0.0075 ± 0.032,-0.001 ± 0.011,0.0075 ± 0.0035,0.008 ± 0.0042,0.0005 ± 0.026,0.004 ± 0.027,0.0305 ± 0.013,-0.0105 ± 0.011,-0.005 ± 0.013,0.004 ± 0.021,-0.004 ± 0.017,-0.012 ± 0.011,-0.0125 ± 0.043,-0.003 ± 0.0042,0.0015 ± 0.042
KF3CT:uPA,-0.015 ± 0.023,-0.0055 ± 0.015,0.01 ± 0.0014,-0.004 ± 0.013,0.0135 ± 0.023,-0.0085 ± 0.022,-0.0215 ± 0.026,-0.006 ± 0.014,-0.005 ± 0.0014,0.008 ± 0.0085,0.002 ± 0.018,-0.002 ± 0.0028,0.0105 ± 0.0035,0.016 ± 0.0014,-0.007 ± 0.033,0.0005 ± 0.0092,-0.008 ± 0.025,-0.0045 ± 0.0021,-0.021 ± 0.017
MyoF:CD106/VCAM-1,0.016 ± 0.0071,0.0045 ± 0.019,-0.011 ± 0.0042,-0.0095 ± 0.0035,-0.024 ± 0.0042,-0.0165 ± 0.0064,-0.017 ± 0.028,-0.0145 ± 0.018,-0.013 ± 0.017,0.006 ± 0.028,-0.0075 ± 0.0021,-0.023 ± 0.017,0.0095 ± 0.0035,-0.001,-0.003 ± 0.0014,0.0105 ± 0.021,0.018 ± 0.011,0.008 ± 0.011,-0.0305 ± 0.019
